Data on 18 compounds can be found in ChEMBL document CHEMBL3272069, “Inhibition of acetylcholinesterase by thiamine. A structure-function study” (J Med Chem, 1977).

Data set [1] has as its target T1, Acetylcholinesterase (Electrophorus electricus, UniProt O42275). Nature of the data set: (§1) Noncompetitive inhibition of electric eel AChE using acetylthiocholine chloride as substrate at pH 8.25 by Michaelis-Menten plot analysis.
A short description of data set [2]: Dissociation constant, pKa of the compound by potentiometric titration analysis. It is filed as physicochemical.
Data set [3] concerns the target T1, Acetylcholinesterase. The data set can be described thus: (§2) Noncompetitive inhibition of electric eel AChE using acetylthiocholine chloride as substrate at pH 7 by Michaelis-Menten plot analysis.
Data set [4] has as its target T1, Acetylcholinesterase. The data set can be described thus: (§3) Competitive inhibition of electric eel AChE using acetylthiocholine chloride as substrate at pH 8.25 by Michaelis-Menten plot analysis.
Data set [5] addresses T1, Acetylcholinesterase. The data set can be described thus: (§4) Competitive inhibition of electric eel AChE using acetylthiocholine chloride as substrate at pH 7 by Michaelis-Menten plot analysis.
For data set [6], the target named is Acetylcholinesterase (Electrophorus electricus) (UniProt O42275). Described as §1.
Data set [7] has the same target. Described as §2.
For data set [8] the target is unchanged. The description is as §3.
Data set [9] shares this target. The description is as §4.

The source made the active and inactive calls. No cut-off for these calls is given here.

T1 sequence (O42275 whole entry): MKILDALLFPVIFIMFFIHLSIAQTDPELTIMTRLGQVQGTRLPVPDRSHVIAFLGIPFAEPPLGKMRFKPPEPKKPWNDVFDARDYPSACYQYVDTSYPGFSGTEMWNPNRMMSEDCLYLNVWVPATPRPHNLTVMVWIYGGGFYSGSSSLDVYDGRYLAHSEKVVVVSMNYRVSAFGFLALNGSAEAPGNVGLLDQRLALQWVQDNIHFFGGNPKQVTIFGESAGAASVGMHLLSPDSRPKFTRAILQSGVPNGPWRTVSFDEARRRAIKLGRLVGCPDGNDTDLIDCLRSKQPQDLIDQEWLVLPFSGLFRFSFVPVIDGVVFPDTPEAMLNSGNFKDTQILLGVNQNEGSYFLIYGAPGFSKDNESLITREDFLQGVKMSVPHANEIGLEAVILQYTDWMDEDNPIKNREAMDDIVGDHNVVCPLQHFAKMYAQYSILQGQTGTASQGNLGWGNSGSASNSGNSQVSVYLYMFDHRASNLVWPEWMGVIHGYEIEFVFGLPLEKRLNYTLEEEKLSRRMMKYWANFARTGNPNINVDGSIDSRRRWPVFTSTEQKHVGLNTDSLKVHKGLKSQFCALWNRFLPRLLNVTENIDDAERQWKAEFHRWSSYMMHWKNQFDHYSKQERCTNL
Sequence of Acetylcholinesterase (Electrophorus electricus) (O42275 24-633 limits assumed): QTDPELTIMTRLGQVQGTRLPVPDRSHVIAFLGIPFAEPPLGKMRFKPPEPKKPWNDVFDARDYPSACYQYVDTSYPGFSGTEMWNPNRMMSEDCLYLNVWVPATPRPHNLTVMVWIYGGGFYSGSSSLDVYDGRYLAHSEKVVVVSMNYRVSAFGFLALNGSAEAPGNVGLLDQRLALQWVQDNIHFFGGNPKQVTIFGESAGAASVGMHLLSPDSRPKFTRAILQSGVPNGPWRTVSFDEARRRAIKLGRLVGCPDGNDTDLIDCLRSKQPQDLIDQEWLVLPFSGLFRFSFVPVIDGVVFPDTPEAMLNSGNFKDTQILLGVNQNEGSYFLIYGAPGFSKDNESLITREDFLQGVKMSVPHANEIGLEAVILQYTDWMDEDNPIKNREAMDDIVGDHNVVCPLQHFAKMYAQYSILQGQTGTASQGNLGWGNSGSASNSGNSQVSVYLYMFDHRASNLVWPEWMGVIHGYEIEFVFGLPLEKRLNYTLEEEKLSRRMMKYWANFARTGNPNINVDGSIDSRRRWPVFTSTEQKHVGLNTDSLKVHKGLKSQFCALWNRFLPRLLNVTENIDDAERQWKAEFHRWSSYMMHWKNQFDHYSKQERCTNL

As to `Cc1ncc(CN2CSC(CCO)C2C)c(N)n1` (stereo not drawn), the inhibition constant Ki on Acetylcholinesterase [1] amounted to 839 µM; at Acetylcholinesterase [3], 624 µM; on Acetylcholinesterase [4], 496 µM; at Acetylcholinesterase [5] it was 188 µM. In addition, the pKa in data set [2] worked out at 7.6.

As to `CCc1sc[n+](C)c1C`, the inhibition constant (Ki) was 0.935 µM at Acetylcholinesterase [1], 5.43 µM at Acetylcholinesterase [3], 8.34 µM on Acetylcholinesterase [4] and 11.1 µM at Acetylcholinesterase [5].

Turning to `c1cncnc1`, the inhibition result in data set [6], in [7], in [8] and in [9] was “inactive” throughout.

Turning to `Cc1ncc(C[n+]2csc(CCOP(=O)(O)OP(=O)(O)OP(=O)(O)O)c2C)c(N)n1`, the inhibition constant (Ki) was found to be 1000 µM on Acetylcholinesterase [1], 881 µM on Acetylcholinesterase [3], 10000 µM on Acetylcholinesterase [4] and 5200 µM on Acetylcholinesterase [5].

As for `Cc1ncc(C[n+]2csc(CCO)c2C)c(N)n1` [THIAMINE], the inhibitory constant (Ki) at Acetylcholinesterase [1] amounted to 333 µM; at Acetylcholinesterase [3], 565 µM; at Acetylcholinesterase [4], 392 µM; on Acetylcholinesterase [5], 432 µM.

Turning to `c1cscn1`, the inhibition entry in data set [6], in [7], in data set [8] and in data set [9] was “inactive” each time.

Take `CCc1scnc1C`: the Ki on Acetylcholinesterase [1] is 51100 µM; at Acetylcholinesterase [3], 1950 µM; at Acetylcholinesterase [4], 562 µM; at Acetylcholinesterase [5], 468 µM.

Consider `Cc1ncsc1CCO`, for which the Ki was found to be 706 µM at Acetylcholinesterase [1], 1370 µM at Acetylcholinesterase [3], 8610 µM at Acetylcholinesterase [4] and 7990 µM on Acetylcholinesterase [5].

`Cc1ncc(C)c(N)n1`: the Ki stood at 551 µM on Acetylcholinesterase [1], 260 µM at Acetylcholinesterase [3], 163 µM on Acetylcholinesterase [4] and 111 µM at Acetylcholinesterase [5]. This compound also gave a pKa in data set [2] of 6.5.

On to `Cc1cscn1`, for which the Ki on Acetylcholinesterase [1] was found to be 109000 µM; on Acetylcholinesterase [3] it was 3250 µM; on Acetylcholinesterase [4] it was 6070 µM; on Acetylcholinesterase [5], 5420 µM.

In the case of `Nc1ccncn1`, the Ki on Acetylcholinesterase [1] was 4240 µM; on Acetylcholinesterase [3] it was 8850 µM; on Acetylcholinesterase [4], 9720 µM; on Acetylcholinesterase [5] it was 5020 µM. The compound also displayed a pKa in [2] of 5.71.

In the case of `Cc1ncc(C[n+]2csc(CCO[P@](=O)(O)OP(=O)(O)O)c2C)c(N)n1`, the Ki is 58400 µM on Acetylcholinesterase [1], 6740 µM at Acetylcholinesterase [3], 14200 µM on Acetylcholinesterase [4] and 14600 µM on Acetylcholinesterase [5].

Regarding `Cc1ncc(CS(=O)(=O)O)c(N)n1`, the inhibition entry in [6], in [7], in [8] and in data set [9] was “inactive” each time.

Take `Cc1c(CCO)sc[n+]1C`: the inhibition constant (Ki) at Acetylcholinesterase [1] was determined as 18800 µM; at Acetylcholinesterase [3], 1250 µM; at Acetylcholinesterase [4], 75.6 µM; on Acetylcholinesterase [5], 148 µM.

For the compound `Cc1ncc(CN2CSC3CCOC32C)c(N)n1` (stereo not drawn), the Ki at Acetylcholinesterase [1] was found to be 237 µM; at Acetylcholinesterase [4], 541 µM.

With `Cc1csc[n+]1C`, the Ki is 445 µM at Acetylcholinesterase [1], 9.8 µM at Acetylcholinesterase [3], 54.8 µM at Acetylcholinesterase [4] and 67.9 µM on Acetylcholinesterase [5].

For the compound `C[n+]1ccsc1`, the Ki at Acetylcholinesterase [1] is 2.95 µM; on Acetylcholinesterase [3], 939 µM; on Acetylcholinesterase [4] it was 286 µM; at Acetylcholinesterase [5], 317 µM.

In the case of `Cc1ncc(C[n+]2csc(CCOP(=O)(O)O)c2C)c(N)n1` [MONOPHOSPHOTHIAMINE], the Ki at Acetylcholinesterase [1] worked out at 5930 µM; at Acetylcholinesterase [3] it was 9270 µM; at Acetylcholinesterase [4], 11300 µM; at Acetylcholinesterase [5] it was 3010 µM.

Broadly, the Ki is a measure of affinity in units of concentration, obtained from inhibition or displacement. A lower Ki goes with tighter binding. Usually pKa stands for the negative logarithm of the acid dissociation constant. Read a low pKa as a stronger acid or weaker base.
